# Values joined by “and” are separate entries in the source; they are usually repeats but may differ in a detail not shown here. Equal entries are not always repeated. Toxic doses and inconclusive results are not listed. Bridge positions count the residues as written; N and C are the ends. Square brackets hold non-standard residues; d marks the D form. Peptide text beside a SMILES is read from it. * marks the point of attachment. Cya = N[CH](CS(=O)(=O)O)C(=O)O; X6 = CC(C)CCCCCCCC(O)CC(=O)*; GABA = NCCCC(=O)O
# Test system: P388 leukemia ip, CD2F1 mice, survival T/C
# Experiment: NCI In Vivo Anticancer Drug Screen. Data for tumor model P388 Leukemia (intraperitoneal) in CD2F1 (CDF1) mice
# Details: endpoint: median survival time, higher = longer survival
# In short: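 Mice carrying the transplanted tumor received test compound or vehicle. Survival was recorded in each group, and the value is the treated-group measurement divided by that of the vehicle-treated control group.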
# [1] = dose: 50.0 mg/kg/injection, schedule: Q01DX009 (ip), vehicle: saline with Tween-80
# [2] = dose: 100.0 mg/kg/injection, schedule: Q01DX009 (ip), vehicle: saline with Tween-80
# [3] = dose: 25.0 mg/kg/injection, schedule: Q01DX005 (ip), vehicle: Klucel (hydroxypropylcellulose) (HPC)
# [4] = dose: 50.0 mg/kg/injection, schedule: Q01DX005 (ip), vehicle: Klucel (hydroxypropylcellulose) (HPC)
# [5] = dose: 100.0 mg/kg/injection, schedule: Q01DX005 (ip), vehicle: Klucel (hydroxypropylcellulose) (HPC)
# [6] = dose: 200.0 mg/kg/injection, schedule: Q01DX005 (ip), vehicle: Klucel (hydroxypropylcellulose) (HPC)
# [7] = dose: 60.0 mg/kg/injection, schedule: Q01DX005 (ip), vehicle: Klucel (hydroxypropylcellulose) (HPC)
# [8] = dose: 120.0 mg/kg/injection, schedule: Q01DX005 (ip), vehicle: Klucel (hydroxypropylcellulose) (HPC)
# [9] = dose: 50.0 mg/kg/injection, schedule: Q01DX009 (ip), vehicle: saline
# [10] = dose: 100.0 mg/kg/injection, schedule: Q01DX001 (ip), vehicle: saline with Tween-80
# [11] = dose: 60.0 mg/kg/injection, schedule: Q01DX005 (ip), vehicle: saline
# [12] = dose: 120.0 mg/kg/injection, schedule: Q01DX005 (ip), vehicle: saline
# [13] = dose: 240.0 mg/kg/injection, schedule: Q01DX005 (ip), vehicle: saline
structure (smiles),measurement,setting,value
O=C1O/C(=C2/OC(=O)c3ccccc32)c2ccccc21,T/C,"dose: 3.13 mg/kg/injection, schedule: Q01DX009 (ip), vehicle: saline with Tween-80",94 % of control
same,T/C,"dose: 6.25 mg/kg/injection, schedule: Q01DX009 (ip), vehicle: saline with Tween-80",100 % of control
same,T/C,"dose: 12.5 mg/kg/injection, schedule: Q01DX009 (ip), vehicle: saline with Tween-80",100 % of control and 91 % of control
same,T/C,"dose: 25.0 mg/kg/injection, schedule: Q01DX009 (ip), vehicle: saline with Tween-80",100 % of control
same,T/C,[1],88 % of control
same,T/C,[2],88 % of control
same,T/C,"dose: 200.0 mg/kg/injection, schedule: Q01DX009 (ip), vehicle: saline with Tween-80",90 % of control
same,T/C,"dose: 400.0 mg/kg/injection, schedule: Q01DX009 (ip), vehicle: saline with Tween-80",92 % of control
O=c1[nH]cnc2c1ncn2C1SC(CO)C(O)C1O (centres undefined),T/C,[3],100 % of control
same,T/C,[4],108 % of control
same,T/C,[5],101 % of control
same,T/C,[6],101 % of control
same,T/C,"dose: 400.0 mg/kg/injection, schedule: Q01DX005 (ip), vehicle: Klucel (hydroxypropylcellulose) (HPC)",92 % of control
COc1cc(C2N=C(N)N=C(N)N2c2ccc(S(N)(=O)=O)cc2)cc(OC)c1OC (centres undefined),T/C,[7],103 % of control
same,T/C,[8],103 % of control
COc1ccc(OC)c(NC(=O)C2=C(C)NC(C)=C(C(=O)Nc3cc(OC)ccc3OC)C2c2cccc([N+](=O)[O-])c2)c1,T/C,"dose: 7.5 mg/kg/injection, schedule: Q01DX005 (ip), vehicle: Klucel (hydroxypropylcellulose) (HPC)",101 % of control
same,T/C,"dose: 15.0 mg/kg/injection, schedule: Q01DX005 (ip), vehicle: Klucel (hydroxypropylcellulose) (HPC)",94 % of control
same,T/C,"dose: 30.0 mg/kg/injection, schedule: Q01DX005 (ip), vehicle: Klucel (hydroxypropylcellulose) (HPC)",92 % of control
Cc1[nH]c(C)c2ccc(=O)ccc12,T/C,"dose: 30.0 mg/kg/injection, schedule: Q01DX005 (ip), vehicle: suspension in saline",101 % of control
same,T/C,"dose: 60.0 mg/kg/injection, schedule: Q01DX005 (ip), vehicle: suspension in saline",94 % of control and 97 % of control
same,T/C,"dose: 120.0 mg/kg/injection, schedule: Q01DX005 (ip), vehicle: suspension in saline",88 % of control
same,T/C,"dose: 240.0 mg/kg/injection, schedule: Q01DX005 (ip), vehicle: suspension in saline",93 % of control
COc1ccc([N+](=O)[O-])cc1NS(=O)(=O)c1ccc(NC(C)=O)cc1,T/C,"dose: 50.0 mg/kg/injection, schedule: Q01DX009 (ip), vehicle: Klucel (hydroxypropylcellulose) (HPC)",100 % of control
same,T/C,"dose: 100.0 mg/kg/injection, schedule: Q01DX009 (ip), vehicle: Klucel (hydroxypropylcellulose) (HPC)",99 % of control
same,T/C,"dose: 200.0 mg/kg/injection, schedule: Q01DX009 (ip), vehicle: Klucel (hydroxypropylcellulose) (HPC)",99 % of control
N=C(N)SCc1cccc2c(=O)cc(-c3ccccc3)oc12,T/C,"dose: 25.0 mg/kg/injection, schedule: Q01DX009 (ip), vehicle: saline",118 % of control
same,T/C,[9],86 % of control and 93 % of control
same,T/C,"dose: 200.0 mg/kg/injection, schedule: Q01DX009 (ip), vehicle: saline",113 % of control and 122 % of control
CC(C)(C)NC(=O)c1cccc(C(N)=O)n1,T/C,"dose: 60.0 mg/kg/injection, schedule: Q01DX005 (ip), vehicle: saline with Tween-80",94 % of control
same,T/C,"dose: 120.0 mg/kg/injection, schedule: Q01DX005 (ip), vehicle: saline with Tween-80",93 % of control
same,T/C,"dose: 240.0 mg/kg/injection, schedule: Q01DX005 (ip), vehicle: saline with Tween-80",97 % of control
CN(C)c1nc(=O)c2c(o1)CC(C)(C)C2,T/C,"dose: 100.0 mg/kg/injection, schedule: Q04DX003 (ip), vehicle: Klucel (hydroxypropylcellulose) (HPC)",110 % of control
same,T/C,"dose: 200.0 mg/kg/injection, schedule: Q04DX003 (ip), vehicle: Klucel (hydroxypropylcellulose) (HPC)",109 % of control
same,T/C,"dose: 400.0 mg/kg/injection, schedule: Q04DX003 (ip), vehicle: Klucel (hydroxypropylcellulose) (HPC)",90 % of control
Cc1ccc(SCc2cn(C3OC(CO)C(O)C3O)c(=O)[nH]c2=O)cc1 (centres undefined),T/C,[7],95 % of control and 102 % of control
same,T/C,[8],95 % of control and 101 % of control
same,T/C,"dose: 240.0 mg/kg/injection, schedule: Q01DX005 (ip), vehicle: Klucel (hydroxypropylcellulose) (HPC)",92 % of control and 95 % of control
Cc1nnc2c3c4c(sc3nc(C)n12)CCCC4,T/C,[4],94 % of control
same,T/C,[5],98 % of control
same,T/C,[6],104 % of control
C1CNP2(=NP(N3CC3)(N3CC3)=NP(N3CC3)(N3CC3)=N2)N1,T/C,"dose: 12.5 mg/kg/injection, schedule: Q01DX001 (ip), vehicle: saline with Tween-80",108 % of control
same,T/C,"dose: 25.0 mg/kg/injection, schedule: Q01DX001 (ip), vehicle: saline with Tween-80",108 % of control
same,T/C,[10],156 % of control
CC1=C(O)c2[nH]c(Cl)c(C=O)c2C(=O)C1=O,T/C,[10],100 % of control
same,T/C,"dose: 200.0 mg/kg/injection, schedule: Q01DX001 (ip), vehicle: saline with Tween-80",98 % of control
same,T/C,"dose: 400.0 mg/kg/injection, schedule: Q01DX001 (ip), vehicle: saline with Tween-80",98 % of control
CCOC(=O)/C(N)=N/N=Nc1ccc([N+](=O)[O-])cc1,T/C,[9],103 % of control
same,T/C,"dose: 100.0 mg/kg/injection, schedule: Q01DX009 (ip), vehicle: saline",103 % of control
COc1cccc2c1C(=O)c1ccccc1-2,T/C,[4],102 % of control
same,T/C,[5],102 % of control
same,T/C,[6],91 % of control
CC(C)(C)N=C(CCNC1CCCCC1)Nc1c(Cl)cccc1Cl,T/C,[1],100 % of control
same,T/C,[2],106 % of control
CC(C)CCCCCCCC(O)CC(=O)NC(CS(=O)(=O)O)C(=O)NC(CC(C)C)C(=O)NCCCC(=O)NC(Cc1cnc[nH]1)C(=O)NC(C)C(=O)NC1C(=O)NC(C(C)O)C(=O)NC(Cc2cnc[nH]2)C(=O)NC(C)C(=O)NC(C(C)O)C(=O)OC1C (centres undefined) (X6-[Cya]L[GABA]HATTHAT; ester 6-C; configuration not given here),T/C,"dose: 0.38 mg/kg/injection, schedule: Q01DX005 (ip), vehicle: other",95 % of control
same,T/C,"dose: 0.75 mg/kg/injection, schedule: Q01DX005 (ip), vehicle: other",102 % of control
same,T/C,"dose: 1.5 mg/kg/injection, schedule: Q01DX005 (ip), vehicle: other",100 % of control
same,T/C,"dose: 3.0 mg/kg/injection, schedule: Q01DX005 (ip), vehicle: other",100 % of control
same,T/C,"dose: 6.0 mg/kg/injection, schedule: Q01DX005 (ip), vehicle: other",99 % of control
COc1ccc(/C=N/N2CN(C(C)C(=O)O)C(C)(O)N=C2N)cc1OC (centres undefined),T/C,[11],102 % of control
same,T/C,[12],104 % of control
same,T/C,[13],103 % of control
COc1cc2c(cc1C/C=C/c1ccccc1)OCO2,T/C,"dose: 50.0 mg/kg/injection, schedule: Q01DX005 (ip), vehicle: saline with Tween-80",105 % of control
same,T/C,"dose: 100.0 mg/kg/injection, schedule: Q01DX005 (ip), vehicle: saline with Tween-80",109 % of control
same,T/C,"dose: 200.0 mg/kg/injection, schedule: Q01DX005 (ip), vehicle: saline with Tween-80",112 % of control
CN(C)c1ncnc2c1ncn2CCn1cnc2c(N(C)C)ncnc21,T/C,"dose: 12.5 mg/kg/injection, schedule: Q01DX005 (ip), vehicle: Klucel (hydroxypropylcellulose) (HPC)",97 % of control
same,T/C,[3],100 % of control
same,T/C,[4],100 % of control and 90 % of control
same,T/C,[5],90 % of control
COc1ccc(CC(O)c2cc(OC)c(OC)c(OC)c2)cc1O (centres undefined),T/C,"dose: 2.5 mg/kg/injection, schedule: Q01DX009 (ip), vehicle: saline + alcohol",108 % of control
same,T/C,"dose: 5.0 mg/kg/injection, schedule: Q01DX009 (ip), vehicle: saline + alcohol",118 % of control
same,T/C,"dose: 10.0 mg/kg/injection, schedule: Q01DX009 (ip), vehicle: saline + alcohol",114 % of control
same,T/C,"dose: 20.0 mg/kg/injection, schedule: Q01DX009 (ip), vehicle: saline + alcohol",101 % of control
same,T/C,"dose: 22.5 mg/kg/injection, schedule: Q01DX009 (ip), vehicle: saline + Tween-80 + alcohol",108 % of control
same,T/C,"dose: 45.0 mg/kg/injection, schedule: Q01DX009 (ip), vehicle: saline + Tween-80 + alcohol",114 % of control
same,T/C,"dose: 90.0 mg/kg/injection, schedule: Q01DX009 (ip), vehicle: saline + Tween-80 + alcohol",107 % of control
same,T/C,"dose: 180.0 mg/kg/injection, schedule: Q01DX009 (ip), vehicle: saline + Tween-80 + alcohol",123 % of control
C=CC1C(C[C@@H]2c3cc(O)c(O)cc3CCN2C(C)=O)C(C(=O)OC)=CO[C@H]1OC1OC(CO)C(O)C(O)C1O (some centres undefined),T/C,[11],105 % of control
same,T/C,[12],103 % of control
same,T/C,[13],104 % of control

# Source: PubChem BioAssay AID330 (DTP/NCI, 2004)
